# Source: patent publication US11096934B2, “Compounds and methods useful for treating or preventing hematological cancers” (THE BROAD INSTITUTE, INC., priority 2015, dated 2021)
# What was measured:
# THP1 cells = test: THP-1 subcutaneous xenograft model of AML; format: in vivo, SCID mice
# From the text: THP1 cells were implanted subcutaneously into the flank of SCID mice, and allowed 10 days to engraft to tumor size of ˜40 mm^2.
# wild-type C57B1/6 mice [1] = test: Maximum tolerated dose (MTD) evaluation; details: doses higher than 15 mg/kg, after 6 days of daily dosing; reversible
# [2] = test system: HoxA9-Meis1 leukemia cells; test: Syngeneic HoxA9 and Meis1-driven model of AML
# From the text: To address the anti-leukemic and differentiation effect of DHODH inhibition in vivo, we chose a syngeneic retroviral transduction model of AML. In this model, bone marrow cells are transduced with MSCV-based retrovirus expressing both HoxA9 and Meis1 oncoproteins and introduced intravenously into recipient mice that have been pre-conditioned with a sub-lethal dose of radiation. Mice that developed acute myeloid leukemia were sacrificed and bone marrow cells were expanded in vitro in media supplemented with SCF and IL-3. To permit easy tracking in vivo, leukemic cells were transduced with lentivirus expressing the Venus fluorescent protein, and double-sorted by fluorescence activated cell sorting (FACS) to purity. These Venus-expressing cultured leukemic cells were re-transplanted into pre-conditioned secondary recipient mice, and these secondary recipients were used in all described experiments. […] Mice were treated at six dosages: (1) vehicle Q2D, (2) BRQ 5 mg/kg Q2D, (3) BRQ 10 mg/kg Q2D, (4) BRQ 25 mg/kg Q2D, (5) vehicle days 1+4 of a 7-day schedule or (6) BRQ 25 mg/kg days 1+4 of a 7-day schedule. Scheduled interim euthanasia and leukemia analyses were performed at two planned time points (FIG. 6A).
# [3] = Brequinar plasma concentration after a single IP dose; details: mouse, FIG. 4E, read-out: half-life in vivo (converted)
# DHODH activity = test: Plasma uridine and dihydroorotate (DHO) after brequinar dosing; format: in vivo, murine
# Method: DHODH catalyzes the conversion of dihydroorotate (DHO) to orotate in the endogenous synthesis of uridine monophosphate. Inhibition of DHODH activity results in dihydroorotate accumulation and uridine depletion.
# Plasma uridine levels were analyzed at various times thereafter (FIG. 8). […] Patient-specific dosing will be accomplished by adjusting the dose of DHODH inhibitor based on the patient's metabolism. This will involve adjusting the dosage based on the measurement of plasma DHO.
# [4] = test system: protein O-GlcNAc modification; test: Immunoblot of protein O-GlcNAc modification; format: cell-based
# From the text: FIG. 5E is an immunoblot.
# DHODH and OMPD inhibitors lead to depletion of uridine and to myeloid differentiation in model systems. […] (See, Example 24.) Without intending to be bound by theory, part of the differentiation effect may be due to depletion of UDP-GlcNAc leading to decreased O-linked N-acetylglycosylation (GlcNAc) post-translational modification of proteins.
# [5] = test system: leukemia initiating cells; test: Leukemia-initiating cell activity (transplant of FACS-purified leukemia cells into tertiary recipients); format: in vivo, mice
# From the text: Leukemic cells isolated from the BRQ-treated mice were more differentiated on the basis of their CD11b and Gr-1 cell-surface expression (FIGS. 6C, 6D). To assess their morphology as well as their functional potential as leukemia initiating cells, live Venus-positive leukemic cells were freshly isolated from vehicle or BRQ-treated mice by fluorescence-activated cell sorting (FACS).
# FACS-purified leukemia cells from vehicle or BRQ-treated mice were re-introduced into sub-lethally irradiated tertiary recipient mice. The experiment was performed twice: from mice that received BRQ 25 mg/kg every other day for 4 doses (FIG. 7B, left panel), and from mice that received BRQ day 1+4 of a 7-day cycle for a total of 6 doses (FIG. 7B, right panel).
# [6] = biological target: panel of >400 known kinases; test: DiscoverX KinomeScan kinase panel; format: binding
# wild-type C57B1/6 mice [7] = details: C57B1/6, mouse, in vivo, 6 days
# Plasma protein binding = format: in vitro ADME; details: consistent with published literature
# Method: Plasma protein binding was determined by equilibrium dialysis using the Rapid Equilibrium Dialysis (RED) device (Pierce Biotechnology, Rockford, Ill.) for both human and mouse plasma. Each compound was prepared in duplicate at 5 μM in plasma (0.95% acetonitrile, 0.05% DMSO) and added to one side of the membrane (200 μl) with PBS pH 7.4 added to the other side (350 μl). Compounds were incubated at 37° C. for 5 hours with a 250 rpm orbital shake. After incubation, samples were analyzed by UPLC-MS (Waters, Milford, Mass.) with compounds detected by SIR detection on a single quadrupole mass spectrometer.
# organ rejection = details: in vivo; cited from earlier work
# Lys-GFP-ER-HoxA9 cells = test: Myeloid differentiation assay in Lys-GFP-ER-HoxA9 cells (GFP / CD11b flow cytometry)
# Method: (See Example 20 for assay details.) After four days of compound treatment, cells were assessed by high-throughput flow cytometry for viability based on forward and side-scatter properties, and for differentiation as determined by the endogenous expression of GFP and cell-surface expression of CD11b (APC fluorescence, FIG. 2C).
# The cell line used was ERHoxA9 myeloblast cell line. […] Removal of beta-estradiol from the culture media inactivates ERHoxA9 and the cells are freed from the HoxA9-differentiation arrest and undergo normal myeloid differentiation.
# Cells were cultured in RPMI (Cellgro) supplemented with 10% fetal bovine serum (Serum Source Int'l), penicillin/streptomycin, L-glutamine (Omega Scientific), 5% conditioned media containing stem cell factor (SCF), and 0.5 μM beta-estradiol (Sigma). On day 1, 25 μL of complete media supplemented with 0.04% Pluronic F-68 (GIBCO) was added to a sterile 384 well culture plate (Greiner) followed by the addition of 0.2 μL of test compound in DMSO (Sigma). Wells contained complete media supplemented with Pluronic F-68 and the 5 μM of the estrogen receptor antagonist fulvestrant that served as a positive control for differentiation. 25 μL of cells (1.2×10^5/ml) in complete media were added and the plates were incubated (37° C./5% CO2) for 4 days. Final concentrations of components were 3,000 cells/well, 4 μM test compound, and 0.4% DMSO.
# On day 5, plates were harvested as follows: 5 μL of an antibody/bead solution consisting of a 1:100 dilution of APC-conjugated anti-mouse CD11b (eBioscience, cloneM1/70) and a 1/500 dilution of polystyrene beads (Spherotech) were added to wells and the plates were incubated for 20 min prior to sampling using the HyperCyt® high throughput flow cytometry platform.
# Cells were cultured in RPMI (Cellgro) supplemented with 10% fetal bovine serum (Serum Source Int'l), penicillin/streptomycin, L-glutamine (Omega Scientific), 5% conditioned media containing stem cell factor (SCF), and 0.5 μM beta-estradiol (Sigma, E2758). On day 1, 25 μL of complete media supplemented with 0.04% Pluronic F-68 (GIBCO) was added to a sterile 384 well culture plate (Greiner) followed by the addition of 0.2 μL of compound dilution arrays in DMSO. Some wells contained complete media supplemented with Pluronic F-68 and 5 μM of the estrogen receptor antagonist fulvestrant that served as a positive control for differentiation. 25 μL of cells (1.2×10^5/ml) in complete media were added and the plates were incubated (37° C./5% CO2) for 4 days. Final concentrations of components were 3,000 cells/well and 0.4% DMSO.
# [8] = 5 mg/kg or 10 mg/kg every other day
# [9] = 25 mg/kg day 1+4 of a 7-day schedule
# [10] = 25 mg/kg day 1+4 of a 7-day schedule, 6 doses
compound,measurement,setting,value
"Cc1c(-c2ccc(-c3ccccc3F)cc2)nc2ccc(F)cc2c1C(=O)O [brequinar, 6-fluoro-2-(2′-fluoro-[1,1′-biphenyl]-4-yl)-3-methyl-quinoline-4-carboxylic acid]",tumor growth,THP1 cells; 5 mg/kg daily IP,arrested tumor growth
same,tumor growth,THP1 cells; 15 mg/kg Q3D IP,slowed tumor growth
same,reduction in cellular uridine levels,THP1 cells; THP1 cells isolated from treated mice vs vehicle,90 % AUC
same,differentiation of explanted THP1 cells (CD11b expression),THP1 cells; tumors explanted after 10 days of treatment,marked differentiation
same,toxicity,wild-type C57B1/6 mice [1],weight loss and thrombocytopenia
same,survival,[2]; [8],prolongation of survival
same,tolerability,[2]; [8],well tolerated without hematologic toxicity or weight loss
same,differentiation markers on leukemic cells,[2]; 25 mg/kg Q2D for four doses,upregulation of differentiation markers CD11b (Mac-1) and Gr-1 (Ly6C/G)
same,"leukemic involvement of bone marrow, spleen and peripheral blood",[2]; 25 mg/kg Q2D for four doses,"dramatic decrease in the leukemic involvement of their bone marrow, spleen, and peripheral blood"
same,side effects,[2]; 25 mg/kg Q2D for four doses,"weight loss, anemia, and thrombocytopenia"
same,time off treatment until relapse with leukemia,"[2]; 25 mg/kg day 1+4, discontinued after 14 doses (day 59)",approximately 4 weeks
same,survival,[2]; [9],even more dramatic prolongation of survival
same,toxicity,[2]; [9],without toxicity
same,"leukemic involvement of bone marrow, spleen and peripheral blood",[2]; [10],"even more dramatic decrease in the leukemic involvement of their bone marrow, spleen, and peripheral blood"
same,side effects,[2]; [10],none of the side effects
same,"cellular uridine, UDP and UDP-glycoconjugates",[2]; HoxA9-Meis1 leukemia cells from bone marrow of treated mice,significant reduction in cellular uridine
same,tolerability and efficacy,"[2]; administered every 3-days, mouse model of AML",both effective against AML and well-tolerated
same,half-life,[3],~12 h
same,"change in DHO levels, IP versus PO administration",DHODH activity; FIG. 11,similar
same,time until DHO levels undetectable again,DHODH activity; single 25 mg/kg dose,≤ 72 h
same,time to rebound of plasma uridine,DHODH activity; single dose 25 mg/kg,about 48 hours
same,protein O-GlcNAc modification,[4],global reduction of protein O-GlcNAc modification
same,morphology of leukemic cells isolated from treated mice,[5]; Wright-Giemsa cytospin,morphologic granulocytic differentiation
same,leukemia development in recipients of leukemic cells from treated donors,"[5]; donors: 25 mg/kg every other day 4 doses, or day 1+4 of 7-day cycle 6 doses, both cases",took longer to develop symptoms of leukemia
same,kinase inhibitory activity,[6]; 100 nM,near-complete absence of kinase inhibitory activity
same,kinase inhibitory activity,[6]; 1 μM,near-complete absence of kinase inhibitory activity
same,tolerated dose,wild-type C57B1/6 mice [7],up to 15 mg/kg
same,protein-bound,Plasma protein binding,98-99%
same,prevention of organ rejection,organ rejection,effective in preventing organ rejection
same,increase in ED50,Lys-GFP-ER-HoxA9 cells; cells cultured in 50% FBS,~2 fold
same,myeloid differentiation effect in vitro,Lys-GFP-ER-HoxA9 cells; pulses that lasted fewer than 48-hours,almost no effect
